This note sets out measurements from PubChem BioAssay AID2286 (Southern Research Specialized Biocontainment Screening …, 2010).

Test [1] can be described thus: viability loss in fusion assay cells – cell-based, MAGI and MAGI-HeLa co-culture, cytotoxicity control for HIV-1 fusion inhibitor project, dose response (AID 2286).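 As to all read-outs here: cells exposed to compound for at least 64 h before ATP readout.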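 As to minimum viability: 100% = median of DMSO vehicle wells with no ATP signal meaning 0%.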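 As to viability: 100% = median of DMSO vehicle wells with no ATP signal meaning 0%.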 The following applies: MAGI-CCR5 cells viability, CellTiter-Glo ATP luminescence; for minimum viability: measured here: MAGI minimum viability across doses. A general note: Cellular ATP, detected with luciferase, serves as a proxy for viable cell number.

Test [2] relates to MAGI-CCR5 cells viability, CellTiter-Glo ATP luminescence. Described as above.
[3] abbreviates: MAGI-HeLa co-culture viability, at 50 µM, stronger effect = lower value.
Where [4] appears, read: measured here: MAGI + HeLa-R5-16 co-culture viability.

The source made the active and inactive calls.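 The calls were made as follows: active = minimum cell viability of 80% or lower across the dose range, counted as toxic; inactive = minimum cell viability above 80%.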

On to `CC(C)(C)c1ccc(S(=O)(=O)/N=C2\C=C(NS(=O)(=O)c3ccccc3)C(=O)c3ccccc32)cc1`, for which, in test [1] (setting [3]), the viability was determined as 51.2%. The compound further showed a minimum viability in test [1] (at 50 µM, stronger effect = lower value) of 51.5%. For the same compound, the CC50 in test [2] (setting [4]) was more than 50 µM.

For the compound `O=C(O)c1cc(-c2ccc(-c3c(-c4ccc5c(c4)OCO5)noc3-c3ccsc3)cc2)nc2ccccc12`, the viability in test [1] (setting [3]) is 64.8%. Besides, the minimum viability in test [1] (at 50 µM, stronger effect = lower value) came to 40.9%. The CC50 is 32.5 µM in test [2] and more than 50 µM in test [2] (setting [4]).

For `Cc1ccc(-c2nc(SCC(=O)Nc3ccccc3OC(F)F)c3c(C)c(C(=O)O)sc3n2)cc1`, the viability in test [1] (setting [3]) worked out at 58%. This compound gave a minimum viability in test [1] (at 50 µM, stronger effect = lower value) of 36.8%. Also, the figures for the cytotoxic concentration (CC50) in test [2] and in test [2] (setting [4]) were 36.4 µM and more than 50 µM, respectively.

For the compound `CCCCCC(=O)Cc1cc(O)cc2c1C(=O)Oc1cc(O)c(C(=O)O)c(CCCCC)c1O2`, the viability in test [1] (setting [3]) came out at 46.4%. In addition, in test [1] (at 50 µM, stronger effect = lower value), the minimum viability was determined as 39.1%. Further, the CC50 in test [2] was 43.3 µM; in test [2] (setting [4]), 46.7 µM.

On to `CC(C)(C)c1ccc(OCC(=O)NNC(=S)NC(=O)c2ccccc2[N+](=O)[O-])c(Br)c1`, for which, in test [1] (setting [3]), the viability was determined as 67.6%. The compound further displayed a minimum viability in test [1] (at 50 µM, stronger effect = lower value) of 71%. The CC50 in test [2] (setting [4]) is more than 50 µM.

For `CSc1nnc(-c2ccccc2N=Cc2c(C)[nH]n(-c3ccc4ccccc4c3)c2=O)c(=O)[nH]1`, the viability in test [1] (setting [3]) is 55.5%. The same compound registered a minimum viability in test [1] (at 50 µM, stronger effect = lower value) of 53.7%. Also, the CC50 in test [2] (setting [4]) is more than 50 µM.

`COc1ccc(S(=O)(=O)Nc2ccccc2C(=O)Nc2nc(-c3ccc(F)cc3)cs2)cc1OC`: in test [1] (setting [3]), the viability turned out to be 27.5%. The minimum viability in test [1] (at 50 µM, stronger effect = lower value) was determined as 18.4%. The 50% cytotoxic concentration (CC50) was 6.51 µM in test [2] and 14.8 µM in test [2] (setting [4]).

For `O=C(O)CCn1cc(/C=C/C(=O)c2ccc(Cl)cc2)c(-c2ccc(Br)cc2)n1`, the viability in test [1] (setting [3]) is 36.4%. The compound further showed a minimum viability in test [1] (at 50 µM, stronger effect = lower value) of 11.5%. Also, the CC50 was 30.7 µM in test [2] and 45.5 µM in test [2] (setting [4]).

Turning to `CCCOc1cccc(C2C(C(=O)c3cc4ccccc4o3)=C(O)C(=O)N2c2cc(C)on2)c1` (stereo not drawn), the viability in test [1] (setting [3]) was 90.1%. In addition, in test [1] (at 50 µM, stronger effect = lower value), the minimum viability came out at 49.1%. Further, the CC50 in test [2] was 49.8 µM.

Consider `COc1ccc2c(c1)cc(C(=O)N/N=C/c1c(O)c(C(=O)O)cc3ccccc13)n2C`, for which the viability in test [1] (setting [3]) is 75.1%; in test [1] (at 50 µM (top of the series)), 95.6% (inactive). This compound showed a minimum viability in test [1] (at 1.56 µM, stronger effect = lower value) of 89.5%. In addition, the CC50 in test [2] (setting [4]) is more than 50 µM.

On to `CCCCCCCCCCCCCCCCn1cc[n+](CC(C)=O)c1`, for which the viability in test [1] (setting [3]) amounted to 3.56%. Moreover, in test [1] (at 50 µM, stronger effect = lower value), the minimum viability amounted to 2.77%. Also, the 50% cytotoxic concentration (CC50) in test [2] is 1.36 µM; in test [2] (setting [4]) it was 2.09 µM.

For `CCOc1cc(/C=C2/C(=N)N3C(=NC2=O)SN=C3S(C)(=O)=O)ccc1OS(=O)(=O)c1ccccc1`, the viability in test [1] (setting [3]) was 68.9%; in test [1] (at 50 µM (top of the series)), 81.5% (inactive). Besides, the minimum viability in test [1] (at 50 µM, stronger effect = lower value) is 81.5%. The 50% cytotoxic concentration (CC50) in test [2] (setting [4]) was more than 50 µM.

In the case of `COc1ccc(C(=O)/C=C/c2cccc(OCc3ccccc3)c2)cc1CSCC(=O)O`, the viability in test [1] (setting [3]) worked out at 13.8%. The minimum viability in test [1] (at 50 µM, stronger effect = lower value) came out at 5.22%. The CC50 is 28.5 µM in test [2] and 46.4 µM in test [2] (setting [4]).

Regarding `Oc1c(Cl)cc(Cl)c(Cl)c1Cc1c(O)c(Cl)cc(Cl)c1Cl`, the viability in test [1] (setting [3]) is 23%. Further, the minimum viability in test [1] (at 50 µM, stronger effect = lower value) came to 15.7%. In addition, the CC50 in test [2] was 1.96 µM; in test [2] (setting [4]), 7.05 µM.

For `O=C(O)c1cccc(NC(=S)N/N=C/c2ccccc2OCc2cccc(Br)c2)c1`, in test [1] (setting [3]), the viability came out at 28.4%. In test [1] (at 50 µM, stronger effect = lower value), this compound gave a minimum viability of 9.27%. Also, the CC50 in test [2] was 22.3 µM; in test [2] (setting [4]) it was 23.9 µM.

Turning to `O=c1cc(-c2ccccc2)nc2c(-c3ccccc3)c(C(F)(F)F)[nH]n12`, in test [1] (setting [3]), the viability came out at 81.4%. Besides, in test [1] (at 50 µM, stronger effect = lower value), the minimum viability was 53.2%. For the same compound, the 50% cytotoxic concentration (CC50) in test [2] is 49.1 µM.

As for `N#C/C(=C\c1ccc(O)c([N+](=O)[O-])c1)c1nc2ccccc2s1`, in test [1] (setting [3]), the viability was 41.9%. Besides, in test [1] (at 50 µM, stronger effect = lower value), the minimum viability was found to be 21.9%. The CC50 in test [2] was 11.7 µM; in test [2] (setting [4]), 43.8 µM.

Take `CC(/C=C1\SC(=S)N(CCCC(=O)Nc2ccc(C(=O)O)cc2)C1=O)=C\c1ccccc1`: the viability in test [1] (setting [3]) stood at 69.6%. The minimum viability in test [1] (at 50 µM, stronger effect = lower value) was found to be 60.9%. Besides, in test [2] (setting [4]), the cytotoxic concentration (CC50) is more than 50 µM.

`Nc1c(S(=O)(=O)O)cc(NC(=O)c2ccccc2)c2c1C(=O)c1ccccc1C2=O`: the viability is 50.2% in test [1] (setting [3]) and 103% (inactive) in test [1] (at 50 µM (top of the series)). In test [1] (at 25 µM, stronger effect = lower value), the minimum viability was 89.2%. In test [2] (setting [4]), the 50% cytotoxic concentration (CC50) stood at 49.2 µM.

With `O=C(NN1C(=O)/C(=C\c2ccc(O)c([N+](=O)[O-])c2)SC1=S)c1ccccc1Cl`, the viability in test [1] (setting [3]) was found to be 69.9%. For the same compound, the minimum viability in test [1] (at 50 µM, stronger effect = lower value) is 62.8%. For the same compound, the half-maximal cytotoxic concentration (CC50) in test [2] (setting [4]) was more than 50 µM.

What is called viability is a read-out of living cells in per cent, often relative to untreated cells. In general, CC50 refers to the concentration giving 50% cytotoxicity.
